From ChEMBL document CHEMBL5257114, “Discovery of imidazo[1,2-b]pyridazine macrocyclic derivatives as novel ALK inhibitors capable of combating multiple resistant mutants” (Bioorg Med Chem Lett, 2023) come the findings set out here.

Series [1] concerns the target ALK tyrosine kinase receptor (Homo sapiens, UniProt Q9UM73). The series is described as follows: Inhibition of wild type ALK (unknown origin).
For series [2], the target named is ALK tyrosine kinase receptor (Homo sapiens, UniProt Q9UM73, G1202R). The series is described as follows: Inhibition of ALK G1202R mutant (unknown origin).
Chain of ALK tyrosine kinase receptor (Homo sapiens, UniProt Q9UM73, G1202R) (Q9UM73 19-1620 G1202R limits assumed): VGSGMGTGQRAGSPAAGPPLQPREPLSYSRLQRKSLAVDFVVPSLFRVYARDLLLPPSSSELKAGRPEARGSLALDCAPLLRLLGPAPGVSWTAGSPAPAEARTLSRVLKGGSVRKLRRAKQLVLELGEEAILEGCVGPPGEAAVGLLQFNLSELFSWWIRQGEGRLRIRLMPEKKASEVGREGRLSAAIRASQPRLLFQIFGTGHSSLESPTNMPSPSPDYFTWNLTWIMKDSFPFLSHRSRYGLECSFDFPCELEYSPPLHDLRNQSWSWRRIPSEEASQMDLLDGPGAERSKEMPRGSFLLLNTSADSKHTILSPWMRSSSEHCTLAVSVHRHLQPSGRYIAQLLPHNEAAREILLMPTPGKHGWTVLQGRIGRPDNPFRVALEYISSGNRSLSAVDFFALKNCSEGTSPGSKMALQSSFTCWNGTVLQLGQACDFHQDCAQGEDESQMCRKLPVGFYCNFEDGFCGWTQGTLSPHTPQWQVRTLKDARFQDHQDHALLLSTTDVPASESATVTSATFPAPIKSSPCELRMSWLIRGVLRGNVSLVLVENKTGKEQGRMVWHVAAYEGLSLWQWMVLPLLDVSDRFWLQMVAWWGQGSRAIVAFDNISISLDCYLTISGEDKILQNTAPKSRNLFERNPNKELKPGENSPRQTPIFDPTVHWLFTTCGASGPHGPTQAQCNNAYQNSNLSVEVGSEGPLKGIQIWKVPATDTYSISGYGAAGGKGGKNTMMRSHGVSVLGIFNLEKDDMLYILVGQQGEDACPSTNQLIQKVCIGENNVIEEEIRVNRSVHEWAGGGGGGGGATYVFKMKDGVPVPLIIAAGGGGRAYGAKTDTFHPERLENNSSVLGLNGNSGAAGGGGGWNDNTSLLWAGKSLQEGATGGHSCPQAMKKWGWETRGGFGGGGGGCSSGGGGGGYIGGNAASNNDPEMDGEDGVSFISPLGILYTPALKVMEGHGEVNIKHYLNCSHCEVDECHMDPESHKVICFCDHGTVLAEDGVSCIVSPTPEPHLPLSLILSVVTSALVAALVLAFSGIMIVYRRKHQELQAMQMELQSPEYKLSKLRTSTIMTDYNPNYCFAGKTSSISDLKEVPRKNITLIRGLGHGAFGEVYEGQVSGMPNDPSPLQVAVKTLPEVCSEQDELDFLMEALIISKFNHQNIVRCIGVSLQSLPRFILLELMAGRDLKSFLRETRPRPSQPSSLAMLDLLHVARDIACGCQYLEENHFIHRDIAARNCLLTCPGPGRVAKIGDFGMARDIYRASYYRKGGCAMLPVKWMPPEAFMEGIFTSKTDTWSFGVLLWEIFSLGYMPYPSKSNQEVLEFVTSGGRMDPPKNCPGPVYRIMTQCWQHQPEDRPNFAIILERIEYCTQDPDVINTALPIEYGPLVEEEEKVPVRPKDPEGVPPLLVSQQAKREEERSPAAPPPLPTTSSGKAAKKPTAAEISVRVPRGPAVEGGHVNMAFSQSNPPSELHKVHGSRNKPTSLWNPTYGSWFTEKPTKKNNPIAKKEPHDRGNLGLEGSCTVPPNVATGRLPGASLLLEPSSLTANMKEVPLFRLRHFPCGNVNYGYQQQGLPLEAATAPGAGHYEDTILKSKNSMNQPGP
Series [3] can be described thus: Inhibition of ALK L1196M/G1202R mutant (unknown origin). Set-up: species or system Homo sapiens.
Series [4] is described as follows: Metabolic stability in human liver microsomes assessed as clearance. It counts as ADME, Microsome. The following applies: read-out: CLH. In general terms: Liver microsomes are a subcellular fraction often used to study metabolism.
Series [5] is described as follows: Metabolic stability in human liver microsomes assessed as half life. It counts as ADME, Microsome.
For a further series, the system named is KARPAS-299. Kind of series: Antiproliferative activity against human KARPAS-299 cells assessed as cell growth inhibition by CCK-8 assay. On the technique in general: Tetrazolium assays rely on reduction of a dye to a coloured formazan, in cell work by metabolically active cells.
Series [6] can be described thus: Antiproliferative activity against mouse Ba/F3 EML4-ALK-G1202R cells assessed as cell growth inhibition by CCK-8 assay. In kind it is functional, cell-based.
A further series deals with BaF3. The series is described as follows: Antiproliferative activity against EML4-ALK-L1196M/G1202R mutated mouse BaF3 cells assessed as cell growth inhibition by CCK-8 assay. It counts as functional, cell-based.
Series [7] can be described thus: Metabolic stability in human liver microsomes assessed as parent compound remaining measured after 60 mins. The following applies: read-out: Stability. It counts as ADME, Microsome.

Chain of ALK tyrosine kinase receptor (Homo sapiens, UniProt Q9UM73) (Q9UM73 whole entry): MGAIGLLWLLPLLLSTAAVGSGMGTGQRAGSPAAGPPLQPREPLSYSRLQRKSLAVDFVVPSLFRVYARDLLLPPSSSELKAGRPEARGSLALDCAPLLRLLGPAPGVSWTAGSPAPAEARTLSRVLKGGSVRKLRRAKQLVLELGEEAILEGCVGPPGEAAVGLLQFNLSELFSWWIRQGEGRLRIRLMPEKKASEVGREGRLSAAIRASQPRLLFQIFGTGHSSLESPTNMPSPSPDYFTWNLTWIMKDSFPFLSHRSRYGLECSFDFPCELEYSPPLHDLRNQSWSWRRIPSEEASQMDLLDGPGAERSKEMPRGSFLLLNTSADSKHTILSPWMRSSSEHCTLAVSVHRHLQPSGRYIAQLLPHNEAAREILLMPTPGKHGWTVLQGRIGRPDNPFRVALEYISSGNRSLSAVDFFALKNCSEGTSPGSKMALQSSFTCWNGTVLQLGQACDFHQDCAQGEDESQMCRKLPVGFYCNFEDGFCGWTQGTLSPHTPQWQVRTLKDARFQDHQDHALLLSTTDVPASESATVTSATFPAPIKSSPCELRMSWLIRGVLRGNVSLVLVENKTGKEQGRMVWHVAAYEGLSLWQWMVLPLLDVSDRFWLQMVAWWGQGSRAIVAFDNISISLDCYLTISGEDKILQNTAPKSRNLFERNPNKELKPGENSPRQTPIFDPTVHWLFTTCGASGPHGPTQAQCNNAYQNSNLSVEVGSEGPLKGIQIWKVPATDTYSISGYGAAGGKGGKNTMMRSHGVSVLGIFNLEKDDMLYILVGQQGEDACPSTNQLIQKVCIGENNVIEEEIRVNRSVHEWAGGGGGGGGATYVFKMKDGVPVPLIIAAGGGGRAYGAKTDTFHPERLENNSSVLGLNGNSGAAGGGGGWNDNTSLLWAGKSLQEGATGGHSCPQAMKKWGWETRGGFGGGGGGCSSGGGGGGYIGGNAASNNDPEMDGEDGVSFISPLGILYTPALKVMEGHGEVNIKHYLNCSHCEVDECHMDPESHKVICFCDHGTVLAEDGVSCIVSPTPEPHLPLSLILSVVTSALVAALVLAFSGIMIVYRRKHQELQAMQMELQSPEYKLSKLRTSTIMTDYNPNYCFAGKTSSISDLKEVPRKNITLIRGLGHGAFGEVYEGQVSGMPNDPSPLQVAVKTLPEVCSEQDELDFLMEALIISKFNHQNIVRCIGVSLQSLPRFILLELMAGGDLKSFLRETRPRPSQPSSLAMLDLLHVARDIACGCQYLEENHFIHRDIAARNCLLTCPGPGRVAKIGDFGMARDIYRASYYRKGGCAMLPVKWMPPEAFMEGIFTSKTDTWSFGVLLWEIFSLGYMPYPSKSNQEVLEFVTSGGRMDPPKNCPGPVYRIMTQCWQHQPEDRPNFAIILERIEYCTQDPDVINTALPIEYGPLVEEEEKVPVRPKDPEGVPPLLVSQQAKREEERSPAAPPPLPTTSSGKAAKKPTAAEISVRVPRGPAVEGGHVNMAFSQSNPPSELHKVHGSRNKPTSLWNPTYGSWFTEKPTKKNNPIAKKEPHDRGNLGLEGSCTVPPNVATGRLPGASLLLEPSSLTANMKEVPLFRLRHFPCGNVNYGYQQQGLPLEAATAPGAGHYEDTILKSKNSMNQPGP

`CN1Cc2cc(F)ccc2OCC(C)(C)NC(=O)c2cnc3ccc1nn23`: the IC50 (commonly the midpoint of a concentration-inhibition curve) in [1] worked out at 25 nM; in series [2], 19 nM; in [3], 95 nM.

Consider `CC1(C)COc2ccc(F)cc2CN(C2CCC2)c2ccc3ncc(n3n2)C(=O)N1`, for which the IC50 worked out at 159 nM in series [1], 200 nM in series [2] and 442 nM in series [3].

`C[C@H]1Nc2ccc3ncc(n3n2)C(=O)NC2(CCC2)COc2ccc(F)cc21`: the IC50 in series [1] worked out at 7.6 nM; in series [2], 4.7 nM; in series [3], 18 nM.

Consider `C[C@H]1Nc2ccc3ncc(n3n2)C(=O)NCCOc2ccc(F)cc21`, for which the IC50 in [1] came to 13 nM; in [2], 28 nM; in series [3] it was 59 nM.

`C[C@H]1Nc2ccc3ncc(n3n2)C(=O)NC2(CC2)COc2ccc(F)cc21`: in [4], the microsomal CLint came to 41 µL/min/mg. For the same compound, the half-life (usually the time needed for the level to fall by half in the phase considered) in [5] was 33.8 min. Moreover, the IC50 came out at 4.2 nM in [1]; 8 nM in series [2]; 24 nM in [3]; 39 nM in the series with KARPAS-299; 56 nM in series [6]; 76 nM with BaF3. The remaining at 1 h in series [7] came to 28.8%.

Turning to `Cc1cc2ncc3n2nc1N[C@H](C)c1cc(F)ccc1OCC1(CC1)NC3=O`, the IC50 in series [1] stood at 18 nM; in [2] it was 47 nM; in series [3], 85 nM.

`C[C@H]1CNC(=O)c2cnc3ccc(nn23)N[C@H](C)c2cc(F)ccc2O1`: the IC50 in [1] was determined as 5.1 nM; in series [2] it was 11 nM; in series [3], 22 nM; with KARPAS-299 it was 72 nM; in series [6], 84 nM; in the series on BaF3 it was 147 nM.

`C[C@@H]1Nc2ccc3ncc(n3n2)C(=O)NC2(CC2)COc2ccc(F)cc21`: the IC50 stood at 482 nM in [1] and 1000 nM in series [2].

As for `C=CC[C@H]1Nc2ccc3ncc(n3n2)C(=O)NC2(CC2)COc2ccc(F)cc21`, the half-inhibitory concentration (IC50) is 9.7 nM in [1], 64 nM in [2] and 34.4 nM in series [3].

Turning to `CC1(C)COc2ccc(F)cc2CNc2ccc3ncc(n3n2)C(=O)N1`, the IC50 in series [1] turned out to be 19 nM; in series [2], 20 nM; in series [3], 37 nM.

For the compound `C[C@H]1Nc2ccc3ncc(n3n2)C(=O)NC(C)(C)COc2ccc(F)cc21`, the IC50 in [1] was found to be 8.3 nM; in [2], 6.4 nM; in [3], 26 nM.

Regarding `CC1(C)COc2ccc(F)cc2CN(C2CC2)c2ccc3ncc(n3n2)C(=O)N1`, the IC50 is 77 nM in [1], 82 nM in [2] and 309 nM in series [3].

Turning to `CCN1Cc2cc(F)ccc2OCC(C)(C)NC(=O)c2cnc3ccc1nn23`, the IC50 was 27 nM in series [1], 22 nM in [2] and 84 nM in [3].

Consider `CCC[C@H]1Nc2ccc3ncc(n3n2)C(=O)NC2(CC2)COc2ccc(F)cc21`, for which the values for the IC50 in series [1] and in series [2] were 415 nM and 1000 nM, respectively.

Turning to `C[C@H]1Nc2ccc3ncc(n3n2)C(=O)NC2(CC2)COc2ccc(Cl)cc21`, the IC50 in [1] was 29 nM; in series [2], 56 nM; in series [3], 105 nM.

Take `C[C@H]1Nc2ccc3ncc(n3n2)C(=O)NC2(CC2)COc2cc(F)ccc21`: the IC50 is 373 nM in series [1], 993 nM in series [2] and 984 nM in series [3].

`CC(C)N1Cc2cc(F)ccc2OCC(C)(C)NC(=O)c2cnc3ccc1nn23`: the IC50 in [1] was determined as 99 nM; in series [2], 145 nM; in series [3] it was 328 nM.

Regarding `C[C@H]1Nc2ccc3ncc(n3n2)C(=O)NC2(CC2)COc2ccccc21`, the IC50 stood at 27 nM in series [1], 98 nM in series [2] and 173 nM in series [3].

In the case of `C[C@H]1CNC(=O)c2cnn3ccc(nc23)N[C@H](C)c2cc(F)ccc2O1` [REPOTRECTINIB], the microsomal CLint in series [4] worked out at 25.6 µL/min/mg. In addition, the half-life in series [5] was determined as 54.1 min. Also, the IC50 in [3] is 20 nM; with KARPAS-299, 40 nM; in series [6], 164 nM; in the series with BaF3, 208 nM. Moreover, the remaining at 1 h in series [7] was found to be 46.1%.
